Reference: patent US20250340551A1, “SMALL MOLECULE MODULATORS OF STAT6” (Gilead Sciences, Inc., priority 2024, published 2025)

Tests used:
[1] = tested on: Eotaxin-3 (CCL26) release in human whole blood stimulated with IL-4; assay: Human whole blood eotaxin-3 assay (IL-4 stimulated, Eotaxin-3 release); format: cell-based; conditions: for Emax: 48 h
Outline: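 Lithium-heparin blood preincubated 2 h at 37° C with 4-fold compound dilutions (0.5% DMSO, triplicates), then stimulated with 400 pM recombinant human IL-4 for 48 h. Eotaxin-3 in plasma supernatant measured by MSD immunoassay.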

human STAT6 = human STAT6 (Homo sapiens (Human), UniProt P42226); assay: Surface plasmon resonance assay (Biacore 8K, binding to immobilized STAT6); conditions: human STAT6 aa122-658, N-terminal His-tag, CM5 chip, 25° C.; geometric mean; read-out: STAT6 SPR Kd
Chain of human STAT6 (P42226 122-658): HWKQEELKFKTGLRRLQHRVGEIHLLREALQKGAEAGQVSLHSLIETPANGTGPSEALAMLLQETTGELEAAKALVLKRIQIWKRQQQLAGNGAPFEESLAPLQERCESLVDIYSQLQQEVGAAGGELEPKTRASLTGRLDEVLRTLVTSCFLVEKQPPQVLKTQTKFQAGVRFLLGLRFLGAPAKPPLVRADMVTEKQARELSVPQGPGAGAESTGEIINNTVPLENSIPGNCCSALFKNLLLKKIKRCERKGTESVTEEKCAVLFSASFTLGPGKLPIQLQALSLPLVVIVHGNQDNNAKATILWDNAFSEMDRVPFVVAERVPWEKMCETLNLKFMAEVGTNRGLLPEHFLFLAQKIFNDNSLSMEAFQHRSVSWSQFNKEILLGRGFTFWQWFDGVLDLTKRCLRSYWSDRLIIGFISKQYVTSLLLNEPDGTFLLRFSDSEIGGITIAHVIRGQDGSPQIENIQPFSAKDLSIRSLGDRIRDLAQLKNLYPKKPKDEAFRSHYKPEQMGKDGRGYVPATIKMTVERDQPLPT
Outline: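 Run at 25° C with His-tagged STAT6 aa122-658 (insect-cell expressed) amine-coupled to a CM5 chip, reference-subtracted, in PBS-P+ with 2% DMSO. Multi-cycle kinetics: 60 sec. contact, up to 300 sec. dissociation. Affinity fitted from late report-point binding isotherms, with Rmax both free and fixed to theoretical 1:1.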

EC50 ([1]; Homo sapiens, Hec50, 48 h) [nM] | Kd (human STAT6) [nM] | EC50 ([1]; human whole blood, 400 pM recombinant human IL-4, 48 h, EC50 provided for compounds with >80% Emax, geometric mean) [nM] | Compound | Emax ([1]; Homo sapiens) [%]
– | 35.8 | – | CNc1ccc(-c2ccnc3c2cc(CN2CCC(c4ccc(C(=O)N(C)C)cc4)CC2=O)n3C)cn1 (stereo not drawn) [Example 1s2, N,N-Dimethyl-4-[1-[[1-methyl-4-[6-(methylamino)-3-pyridyl]pyrrolo[2,3-b]pyridin-2-yl]methyl]-2-oxo-4-piperidyl]benzamide] | 54.4
958 | 33.8 | – | CNc1ccc(-c2ccnc3c2cc(CN2CC=C(c4ccc(C(=O)N(C)C)cc4C)CC2)n3C)cn1 [Example 1s8, N,N,3-Trimethyl-4-[1-[[1-methyl-4-[6-(methylamino)-3-pyridyl]pyrrolo[2,3-b]pyridin-2-yl]methyl]-3,6-dihydro-2H-pyridin-4-yl]benzamide] | –
205 | 40.4 | – | CNc1ccc(-c2ccnc3c2cc(CN2CC=C(c4c(C)cc(C(=O)N(C)C)cc4C)CC2)n3C)cn1 [Example 1s10, N,N,3,5-Tetramethyl-4-[1-[[1-methyl-4-[6-(methylamino)-3-pyridyl]pyrrolo[2,3-b]pyridin-2-yl]methyl]-3,6-dihydro-2H-pyridin-4-yl]benzamide] | –
4960 | 32.1 | – | CNc1ccc(-c2ccnc3c2cc(CN2CC=C(c4ncc(C(=O)N(C)C)cc4C)CC2)n3C)cn1 [Example 1s12, N,N,5-Trimethyl-6-[1-[[1-methyl-4-[6-(methylamino)-3-pyridyl]pyrrolo[2,3-b]pyridin-2-yl]methyl]-3,6-dihydro-2H-pyridin-4-yl]pyridine-3-carboxamide] | –
480 | 28.8 | – | CNc1ccc(-c2ccnc3c2cc(CN2CCC(c4c(C)cc(C(=O)N(C)C)cc4C)CC2)n3C)cn1 [Example 1s13, N,N,3,5-Tetramethyl-4-[1-[[1-methyl-4-[6-(methylamino)-3-pyridyl]pyrrolo[2,3-b]pyridin-2-yl]methyl]-4-piperidyl]benzamide] | –
– | 28.9 | – | CNc1ccc(-c2ccnc3c2cc(CN2CCN(c4ccc(C(=O)N(C)C)cc4C)CC2)n3C)cn1 [Example 1s14, N,N,3-Trimethyl-4-[4-[[1-methyl-4-[6-(methylamino)-3-pyridyl]pyrrolo[2,3-b]pyridin-2-yl]methyl]piperazin-1-yl]benzamide] | 37.2
2580 | 22.1 | – | CNc1ccc(-c2ccnc3c2cc(CN2CCC(c4ccc(C(=O)N(C)C)cc4F)CC2)n3C)cn1 [Example 1s30, 3-Fluoro-N,N-dimethyl-4-(1-((1-methyl-4-(6-(methylamino)pyridin-3-yl)-1H-pyrrolo[2,3-b]pyridin-2-yl)methyl)piperidin-4-yl)benzamide] | –
328 | 44.9 | – | CNc1ccc(-c2ccnc3c2cc(CN2CCC(c4ccc(C(=O)N(C)C)cc4)CC2)n3C)[n+]([O-])c1 [Example 1u2, N,N-Dimethyl-4-[1-[[1-methyl-4-[5-(methylamino)-1-oxido-pyridin-1-ium-2-yl]pyrrolo[2,3-b]pyridin-2-yl]methyl]-4-piperidyl]benzamide] | –
104 | 16 | – | CNc1ccc(-c2ccnc3c2cc(CN2CC=C(c4ccc(C(=O)N(C)C)cc4C)CC2)n3C)[n+]([O-])c1 [Example 1u3, N,N,3-Trimethyl-4-[1-[[1-methyl-4-[5-(methylamino)-1-oxido-pyridin-1-ium-2-yl]pyrrolo[2,3-b]pyridin-2-yl]methyl]-3,6-dihydro-2H-pyridin-4-yl]benzamide] | –
1110 | 29.5 | – | CNc1ccc(-c2ccnc3c2cc(CN2CCC(c4ccc(C(=O)N(C)C)cc4)CC2)n3S(C)(=O)=O)cn1 [Example 1x1, N,N-Dimethyl-4-[1-[[4-[6-(methylamino)-3-pyridyl]-1-methylsulfonyl-pyrrolo[2,3-b]pyridin-2-yl]methyl]-4-piperidyl]benzamide] | –

The remaining lines, values behind:

Compound | EC50 ([1]; Homo sapiens, Hec50, 48 h) [nM] | Kd (human STAT6) [nM] | EC50 ([1]; human whole blood, 400 pM recombinant human IL-4, 48 h, EC50 provided for compounds with >80% Emax, geometric mean) [nM] | Emax ([1]; Homo sapiens) [%]
CNc1ccc(-c2ccnc3c2cc([C@H](C)N2CCC(c4ccc(C(=O)N(C)C)cc4)CC2)n3C)nc1 [Example 1o24, (S)—N,N-dimethyl-4-(1-(1-(1-methyl-4-(5-(methylamino)pyridin-2-yl)-1H-pyrrolo[2,3-b]pyridin-2-yl)ethyl)piperidin-4-yl)benzamide] | 444 | 31.2 | – | –
CNc1ccc(-c2ccnc3c2cc(CN2CC[C@@H](c4ccc(C(=O)N(C)C)cc4)C[C@H]2C)n3C)nc1 [Example 1o26, N,N-dimethyl-4-((2R,4R)-2-methyl-1-((1-methyl-4-(5-(methylamino)-pyridin-2-yl)-1H-pyrrolo[2,3-b]pyridin-2-yl)methyl)piperidin-4-yl)benzamide] | 458 | 32.4 | – | –
CNc1ccc(-c2ccnc3c2cc(CN2CCN(c4ccc(C(=O)N(C)C)cc4)CC2)n3C)nn1 [Example 1p1, N,N-Dimethyl-4-[4-[[1-methyl-4-[6-(methylamino)pyridazin-3-yl]pyrrolo[2,3-b]pyridin-2-yl]methyl]piperazin-1-yl]benzamide] | 76000 | 329 | – | –
CNc1ccc(-c2ccnc3c2cc(CN2CCC(c4ccc(C(=O)N(C)C)cc4C)CC2)n3C)nn1 [Example 1p2, N,N,3-Trimethyl-4-[1-[[1-methyl-4-[6-(methylamino)pyridazin-3-yl]pyrrolo[2,3-b]pyridin-2-yl]methyl]-4-piperidyl]benzamide] | 14100 | 70.1 | – | –
CNc1ccc(-c2ccnc3c2cc(CN2CCN(c4ccc(C(=O)N(C)C)cc4C)CC2)n3C)nn1 [Example 1p3, N,N,3-Trimethyl-4-[4-[[1-methyl-4-[6-(methylamino)pyridazin-3-yl]pyrrolo[2,3-b]pyridin-2-yl]methyl]piperazin-1-yl]benzamide] | 232 | 19.2 | – | –
CNc1ccc(-c2ccnc3c2cc(CN2CC=C(c4ccc(C(=O)N(C)C)cc4C)CC2)n3C)nn1 [Example 1p6, N,N,3-Trimethyl-4-[1-[[1-methyl-4-[6-(methylamino)pyridazin-3-yl]pyrrolo[2,3-b]pyridin-2-yl]methyl]-3,6-dihydro-2H-pyridin-4-yl]benzamide] | 723 | 22 | – | –
CC(=O)Nc1ccc(-c2ccnc3c2cc(CN2CC[C@@H](c4ccc(C(=O)N(C)C)cc4)[C@@H](F)C2)n3C)cc1 [Example 1r6, N,N-dimethyl-4-[(3R,4S)-1-[[4-(4-acetamidophenyl)-1-methyl-pyrrolo[2,3-b]pyridin-2-yl]methyl]-3-fluoro-4-piperidyl]benzamide] | – | 39.9 | – | 51.2
N,N-Dimethyl-4-[1-[[1-methyl-4-[6-(methylamino)-3-pyridyl]pyrrolo[2,3-b]pyridin-2-yl]methyl]-4-piperidyl]benzamide [Example 1k37] | – | 16 | 7160 | –
